In US10815212B2, “Cytotoxin compounds and methods of isolation” (priority 2004, dated 2020):

Experiments:
[1] = Field-based feeding-deterrent assays
[2] = system: UACC-62
[3] = system: National Cancer Institute (NCI) 60 cell line panel
[4] = system: M14; test: cells; settings: Homo sapiens, M14, read-out: LC50
[5] = system: SK-MEL-5; test: cells; settings: Homo sapiens, SK-MEL-5, read-out: LC50
[6] = system: LOX IMVI; test: cells; settings: Homo sapiens, read-out: LC50
[7] = system: HCC-2998; test: cells; settings: Homo sapiens, HCC 2998, read-out: LC50
[8] = system: RXF 393; test: cells; settings: Homo sapiens, RXF 393, read-out: LC50
[9] = system: National Cancer Institute (NCI) 60 cell line panel; test: cells; settings: read-out: LC50

CC(C)=CC(=O)N/C=C/C(C)=C/C(C)C1C/C(C)=C/C=C/CCC(OC(N)=O)C(O)/C=C/C(O)CCC/C=C/C(=O)O1 (stereo not shown) [Palmerolide A]
bioactivity in field-based feeding-deterrent assays [1]: displayed bioactivity | cytotoxicity (in words) [2]: displays cytotoxicity | selectivity index among tested cell lines ([3]; most sensitive cells relative to other cell lines tested): 10^3 | CC50 [4]: 76 nM | CC50 [5]: 6.8 µM | CC50 [6]: 9.8 µM | CC50 [7]: 6.5 µM | CC50 [8]: 6.5 µM | CC50 [9]: > 10 µM

C/C(C=O)=C\C(C)C1C/C(C)=C/C=C/CCC(OC(N)=O)C(O)/C=C/C(O)CCC/C=C/C(=O)O1 (stereo not shown) [Palmerolide E]
bioactivity in field-based feeding-deterrent assays [1]: displayed bioactivity | activity/potency relative to palmerolide A (in words) ([3]; NCI 60 cell line bioassay): reduced activity

CC(C)=CC(=O)N/C=C/C(C)=C/C(C)C1C/C(C)=C/C=C/CCCC(OC(N)=O)C(O)C(O)/C=C/CC/C=C/C(=O)O1 (stereo not shown) [Palmerolide C]
bioactivity in field-based feeding-deterrent assays [1]: displayed bioactivity

C=C(C)C/C(C)=C\C(=O)N/C=C/C(C)=C/C(C)C1C/C(C)=C/C=C/CCC(OC(N)=O)C(O)/C=C/C(O)CCC/C=C/C(=O)O1 (stereo not shown) [Palmerolide D]
bioactivity in field-based feeding-deterrent assays [1]: displayed bioactivity
